Test results from patent US20150250892A1, “BIODEGRADABLE POLYMERIC BUFFERS” (Northeastern University, priority 2012, published 2015).

Assays:
SKOV3 cells = assay: Cytotoxicity evaluation of drug loaded HA nanoparticles on ovarian cancer cells; assay type: cell-based; details: free drug
Text: 9) Cytotoxicity Evaluation of Drug Loaded HA Nanoparticles on Ovarian Cancer Cells: […]

[1] = test system: MDA-MB-231 breast cancer cell lines; assay: In vitro cell uptake of free doxorubicin (DOX) and DOX loaded HA polymers; assay type: cell-based; details: 20 μM, 1 h incubation, fluorescence microscopy
Protocol: In order to determine the pH altering effects of the hyaluronic acid-lipid modified polymers and cellular trafficking of drugs, a model fluorescent drug, doxorubicin, was encapsulated into the unmodified and modified HA polymers and tested on MDA-MB-231 breast cancer cell lines.
After 1 h of incubation, the cells were washed thrice with PBS and the uptake of DOX in the cells was observed using a fluorescence microscope.

[2] = of the free drug; cited from earlier work
[3] = Homo sapiens, SK-OV-3, 48 hour timepoint

SMILES | IC50 (SKOV3 cells; [3]) | IC50 (SKOV3 cells; 48 hour timepoint) | uptake of DOX in the nucleus [1] | logP [2]
CC[C@@]1(O)C(=O)OCc2c1cc1n(c2=O)Cc2cc3ccccc3nc2-1 [Camptothecin] | 0.82 µM |  |  | 
COc1cccc2c1C(=O)c1c(O)c3c(c(O)c1C2=O)C[C@@](O)(C(=O)CO)C[C@@H]3O[C@H]1C[C@H](N)[C@H](O)[C@H](C)O1 [Doxorubicin] |  | 5.78 µM | much lower in the nucleus | −0.5
COc1cc([C@@H]2c3cc4c(cc3[C@@H](O[C@@H]3O[C@@H]5CO[C@@H](C)O[C@H]5[C@H](O)[C@H]3O)[C@H]3COC(=O)[C@H]23)OCO4)cc(OC)c1O [Etoposide] | 4.58 µM |  |  | 
CC(=O)[C@]1(O)Cc2c(O)c3c(c(O)c2[C@@H](O[C@H]2C[C@H](N)[C@H](O)[C@H](C)O2)C1)C(=O)c1ccccc1C3=O [Idarubicin] | 3.82 µM |  |  | 0.2
CC(=O)O[C@H]1C(=O)[C@@]2(C)[C@H]([C@H](OC(=O)c3ccccc3)[C@]3(O)C[C@H](OC(=O)[C@H](O)[C@@H](NC(=O)c4ccccc4)c4ccccc4)C(C)=C1C3(C)C)[C@]1(OC(C)=O)CO[C@@H]1C[C@@H]2O [Paclitaxel] | 0.0101 µM |  |  | 
CC[C@@]1(O)C(=O)OCc2c1cc1n(c2=O)Cc2cc3c(CN(C)C)c(O)ccc3nc2-1 [Topotecan] | 0.22 µM |  |  | 0.8
